Data on 1 molecule can be found in PMC7199333, “Efficacy and safety of lanreotide autogel compared with lanreotide 40 mg prolonged release in Chinese patients with active acromegaly: results from a phase 3, prospective, randomized, and open-label study (LANTERN)” (BMC Endocrine Disorders, 2020).

The conditions of data set [1]: cited from earlier work. An excerpt: Somatostatin analogs (SSAs) are the preferred type of medical therapy used to reduce GH secretion. Patients who have persistent disease following surgical resection are recommended treatment with the first-generation long acting SSAs, octreotide long-acting release (LAR) or lanreotide autogel. Lanreotide is a synthetic octapeptide analog of natural somatostatin with a longer half-life (t½) than the native molecule, and a selective somatostatin receptor subtype agonist with a high affinity for human somatostatin receptors 2 and 5 [5], which are commonly expressed at both the mRNA [6] ... || Steady-state PK was achieved after the administration of four lanreotide autogel doses. […] Similarly, Bronstein and colleagues reported a steady state Cmin (equivalent to Ctrough) of 3.76 ng/mL [19].

Data set [2] in a line: Serum lanreotide pharmacokinetics (non-compartmental). Format: in vivo, human. The following applies: lanreotide autogel; fourth titrated dose 120 mg normalized to 90 mg vs first dose of 90 mg; PK subgroup. How it is done: Lanreotide autogel – pre-dose serum samples were taken at weeks 1, 13, 17, and 29; sampling around 4 h after treatment at weeks 13 and 17 and at the end of study (Week 33)/early withdrawal visit. For a subset of patients in the PK subgroup, additional samples were taken during the study and during the PK extension phase: after the first administration of 90 mg at Week 1 (1, 4, 6, 8, 12, 24, and 72 h), Week 2 (168 h), Week 3 (336 h), Week 4 (504 h) and prior to the next administration at Week 5 (672 h); after the fourth (last) administration of the titrated dose at Week 29 (1, 4, 6, 8, 12, 24, and 72 h), Week 30 (168 h), Week 31 (336 h), Week 32 (504 h), and at Week 37 (1344 h) and Week 41 (2016 h).
Lanreotide 40 mg PR – pre-dose serum samples were taken at weeks 1, 2, 13, 16, and at the end-of-study/early withdrawal visit (all taken shortly before treatment) for all patients.
PK endpoints included trough lanreotide concentrations (Ctrough i.e. observed serum concentration at the end of the dosing interval) prior to the fourth, fifth and eighth administrations and at the end-of-study treatment visit with lanreotide autogel, and prior to the second, tenth and twelfth administrations and at the end-of-study visit with lanreotide 40 mg PR. Following a similar approach as reported by Bronstein and colleagues, a non-compartmental PK analysis was performed for the lanreotide autogel PK subgroup to provide individual PK parameters over a 4-week dosing interval after the first and last administration of study drug (i.e. steady state): maximum plasma concentration (Cmax), time to maximum plasma concentration (tmax), area under the concentration–time curve over a 4-week dosing interval (AUCtau), Ctrough and elimination t½ [19].
Additional parameters were estimated, comparing lanreotide PK after Week 1 and Week 29 after normalization to a dose of 90 mg: accumulation ratio for Ctrough (Rtrough) = Ctrough,Week 29/Ctrough,Week 1; accumulation ratio for Cmax (Rmax) = Cmax,Week 29/Cmax,Week 1; accumulation ratio for AUCtau (RAUC) = AUCtau, Week 29/AUCtau, Week 1.

Data set [3] concerns human somatostatin receptor 2. Also noted: method as in PMID 7988476. The following applies: selective somatostatin receptor subtype agonist; cited from earlier work.
The test system of data set [4] is human somatostatin receptor 5. Also noted: method as in PMID 7988476. The note with it: selective somatostatin receptor subtype agonist; cited from earlier work.

For `CC(C)[C@@H]1NC(=O)[C@H](CCCCN)NC(=O)[C@@H](Cc2c[nH]c3ccccc23)NC(=O)[C@H](Cc2ccc(O)cc2)NC(=O)[C@@H](NC(=O)[C@H](N)Cc2ccc3ccccc3c2)CSSC[C@@H](C(=O)N[C@H](C(N)=O)[C@@H](C)O)NC1=O` [lanreotide], the “Half-life (t½) compared with the native molecule (natural somatostatin)” value in data set [1] is “longer”. Besides, in data set [2], the “Mean RAUC (accumulation ratio for AUCtau, Week 29/Week 1)” value came out at 2.33; the “Mean Rmax (accumulation ratio for Cmax, Week 29/Week 1)” value was determined as 1.40; the “Mean Rtrough (accumulation ratio for Ctrough, Week 29/Week 1)” value came out at 2.62. The “Affinity for human somatostatin receptor 2” value in data set [3] is reported as “high affinity”. In addition, in data set [4], the “Affinity for human somatostatin receptor 5” value is listed as “high affinity”.
